We go through three molecules from patent US4620971A, “Indium-bleomycin complex” (The United States of America as represented by the …, priority 1983, dated 1986).

“Also recorded” adds a separate entry of the source.

A short description of series [1]: Whole body activity retained / excretion in normal mice. In kind it is in vivo, C57BL/6 mice. Particulars: ip. Here is the method: Male 6-week-old C57BL/6 untreated, not tumor-bearing, mice were given intraperitoneal (ip) injectons of 30-40 μCi of ^111 InCl3, ^111 In-BLM-B2, ^111 In-BLM, ^111 In-BLMC or ^57 Co-BLM. At 1, 2, 4, 24, 48, and 72 hr after injection of the radiopharmaceutical, the animal was made to urinate and then the whole body activity was measured in a dose calibrator (FIG. 8).

The subject of another series is serum transferrin. The series is described as follows: Binding to serum transferrin, in vitro mixtures with plasma (gel electrophoresis). Details: species or system mice. Here is the method:
Solutions of ^111 In-BLM, ^111 In-BLM-B2, ^111 -In-BLM-A2, ^111 In-BLMC and ^57 Co-BLM were analyzed by TLC using 10% ammonium acetate-methanol (1:1 v/v) as the eluant. After applying 0.2 μl of the samples, cold air was blown over the plate for 1-2 minutes. The plate was placed in a TLC cylinder containing freshly prepared eluant and the cylinder immediately covered with a glass plate. All cylinders were enclosed in a sealed plastic bag together with an open beaker containing eluant in order to maintain a saturated atmosphere. One to three, 48-hour urine samples from normal or gliomabearing mice given injections of ^111 In-BLM or one of its fractions were also analyzed by this TLC procedure. The same urine samples were also analyzed by gel electrophoresis on 5% agarose (Sigma or BRL low EEO) (Hoch, et al Anal Biochem. 78: 312-317, 1977). The aqueous gel was equilibrated against Co2 -saturated 0.02M NaHCO3 and the electrode chambers contained CO2 -saturated 0.1M NaHCO3. […] In vitro mixtures of 5 parts urine from untreated mice and 1 part of solution of ^111 In-BLM or its fraction were similarly analyzed immediately after mixing. […] The same gel electrophoresis procedure was used for ^111 In-BLM, ^111 In-BLMC, ^111 In-BLM-A2, ^111 In-BLM-B2 and ^57 Co-BLM; the dried plates were autoradiographed or analyzed with radiochromatogram scanner. […]

The test system of another series is Glioma 26. Kind of series: Control experiment with cold InCl3, intratumor. The series is classed as in vivo, C57 BL/6 mice. Particulars: for Host weight / Tumor size: cold, i.t. The procedure:
Two control experiments were made with cold InCl3 (InCl3 that had been stored for 4 weeks and was practically nonradioactive, pH=1-3) and cold In-BLMC (prepared with nonradioactive InCl3 by the same method as that used for ^111 In-BLMC, final pH=1.5-3.0). At a tumor age of 6 days, ip injections were given daily for 3 days: Group VII (n=5)--0.2 ml of 0.9% NaCl; Group VIII (n=5)--In-BLMC carried by 0.004 mg BLM/g tumor weight in 0.2 ml of 0.9% NaCl. At a tumor age of 13 days, single doses were given it: Group IX (n=2)--0.7 ml of 0.9% NaCl/g tumor weight; Group X (n=3)--InCl, 0.7 ml/g tumor weight.
The tumor size (product of the three dimensions in mm^3) and body weight were measured daily for 16 days following the first injection. Host weight was obtained by subtracting tumor weight from body weight, where tumor weight (g)=tumor size (d1 d2 d3, mm^3)×0.00053

The test system of the next series is glioma. Kind of series: Gamma images - tumor imaging in glioma-bearing mice. Particulars: 24 hr after i.p. injection. In kind it is in vivo. The text has this: The 2- to 3-week-old glioma-bearing mice (tumor size: 1.0-1.5 cm) were given injections of ^111 In-BLMC, ^67 Ga-citrate, or ^111 In-BLM into the orbital sinus (or by ip injection). Images were taken with a gamma camera (Raytheon) immediately, 1, 2, 4, 24, and 48 hr after injection by using a pinhole collimator (1/4 inch diameter), with the distance of 12 cm between mouse and collimator. ^111 In-BLM, and ^111 In-BLMC were obtained according to Examples II and III; ^67 Ga-citrate was commercially obtained from New England Nuclear (NEN), Boston, Mass.

With `[Cl][111In]([Cl])[Cl]` [^111 InCl3], the “Rate of excretion (from percent activity retained)” value in series [1] is on record as “rate of excretion increased in the following order, reflecting descreasing binding capacity for transferrin: ^111 InCl3, ^111 In-BLM-B2, ^111 In-BLM, ^57 Co-BLM, ^111 In-BLMC”. Besides, in the series with serum transferrin, the Binding to transferrin result is given as “binds to serum transferrin in vitro”.

Turning to `[Cl][In]([Cl])[Cl]` [InCl3], the “Tumor size vs NaCl, comparison” value in the series on Glioma 26 (cold InCl3 i.t.) is “did not affect glioma; also recorded: the tumor sizes increased and were similar”. The Host weight in the series with Glioma 26 (day 0 after therapy) is recorded as 20.3 ± 2.5 g; in the series on Glioma 26 (day 1 after therapy) it was 20.4 ± 1.6 g; with Glioma 26 (day 2 after therapy), 20.0 ± 1.6 g; in the series with Glioma 26 (day 3 after therapy), 20.0 ± 1.5 g; in the series with Glioma 26 (day 4 after therapy), 20.0 ± 1.5 g; in the series with Glioma 26 (day 5 after therapy), 19.9 ± 1.6 g. Moreover, the Host weight with Glioma 26 (day 6 after therapy) is reported as 17.9 ± 1.9 g; with Glioma 26 (day 7 after therapy), 18.8 ± 2.9 g; in the series with Glioma 26 (day 8 after therapy), 19.1 ± 2.4 g; in the series on Glioma 26 (day 9 after therapy), 20.3 ± 3.8 g. For the same molecule, the Tumor size is 1238 ± 711 mm^3 in the series on Glioma 26 (day 0 after therapy); 1741 ± 701 mm^3 in the series with Glioma 26 (day 1 after therapy); 1998 ± 559 mm^3 in the series with Glioma 26 (day 2 after therapy); 2496 ± 395 mm^3 in the series with Glioma 26 (day 3 after therapy); 2720 ± 503 mm^3 in the series on Glioma 26 (day 4 after therapy); 3333 ± 276 mm^3 in the series with Glioma 26 (day 5 after therapy). Also, the Tumor size in the series with Glioma 26 (day 6 after therapy) amounted to 3882 ± 501 mm^3; in the series with Glioma 26 (day 7 after therapy) it was 5015 ± 936 mm^3; with Glioma 26 (day 8 after therapy), 5234 ± 1146 mm^3; with Glioma 26 (day 9 after therapy) it was 5988 ± 492 mm^3.

Turning to `O=C([O-])CC(O)(CC(=O)[O-])C(=O)[O-].[67Ga+3]` [^67 Ga-citrate], in the series with glioma, the “Accumulation of radioactivity in tumor (gamma images)” value was “higher for ^111 In-BLMC (FIG. 9e) than that for ^67 Ga-citrate (FIG. 9d)”; the “Activity in liver and background (gamma images)” value was “lower for ^111 In-BLMC than those for ^67 Ga-citrate or ^111 In-BLM”.
